Assay results published in patent US6372766B1, “Substituted 2-(2′-pyridyloxy)phenylacetamides, as fungicides and pesticides” (priority 1997, dated 2002).

Each compound was assayed on Nephotettix cincticeps (assay: Action against Nephotettix cincticeps (green rice leafhopper), contact action). Details: treated filter paper dishes, adult leafhoppers, mortality after 24 hours.
Format: in vivo
Excerpt: The active compounds were formulated
a. as a 0.1% solution in acetone or
b. as a 10% emulsion in a mixture of 70% by weight of cyclohexanone, 20% by weight of Nekanil® LN (Lutensol® AP6, wetting agent having emulsifying and dispersing action based on ethoxylated alkylphenols) and 10% by weight of Wettol® EM (nonionic emulsifier based on ethoxylated castor oil)
and diluted in the case of a. with acetone and in the case of b. with water to give the desired concentration.
After the experiments had ended, in each case the lowest concentration was determined at which the compounds still caused an 80 to 100% inhibition or mortality in comparison with untreated control experiments (critical or minimal concentration).
Filter paper dishes (Ø 9 cm) were treated with 1 ml of aqueous preparations of active compounds and subsequently populated with five adult leafhoppers. After 24 hours, the mortality was determined.

| Structure (SMILES) | critical concentration (lowest concentration still causing 80 to 100% inhibition or mortality) |
| --- | --- |
| CNC(=O)/C(=N/OC)c1ccccc1COc1ncc(C(F)(F)F)cc1C [I-2, α-anti-methoxyimino-N-methyl-2-(3-methyl-5-trifluoromethyl-2-pyridyloxy)methyl-phenylacetamide] | 0.2 mg |

Each compound was assayed on Puccinia recondita (assay: Action against Puccinia recondita on wheat (wheat leaf rust)). Details: 63 ppm; wheat "Frühgold"; sprayed the day after infection; 7 days; untreated plants 75%.
Format: in vivo

| Structure (SMILES) | infection (extent of rust fungus development on leaves) |
| --- | --- |
| CNC(=O)/C(=N/OC)c1ccccc1COc1nc(Cl)ccc1C(F)(F)F [I-3] | no infection |
| CNC(=O)/C(=N/OC)c1ccccc1COc1ncc(C(F)(F)F)cc1F [I-1, α-anti-methoxyimino-N-methyl-2-(3-fluoro-5-trifluoromethyl-2-pyridyloxy)methylphenyl-acetamide] | no infection |
| CNC(=O)/C(=N/OC)c1ccccc1COc1nc(Cl)c(C(F)(F)F)cc1Cl [I-6] | no infection |
| CNC(=O)/C(=N/OC)c1ccccc1COc1ncc(C(F)F)cc1Cl [I-8] | no infection |
| CNC(=O)/C(=N/OC)c1ccccc1COc1ncc(C(F)(F)F)cc1C [I-2, α-anti-methoxyimino-N-methyl-2-(3-methyl-5-trifluoromethyl-2-pyridyloxy)methyl-phenylacetamide] | no infection |
